Data reported in US20230365566A1, “HETEROCYCLIC AMIDES AND THEIR USE FOR MODULATING SPLICING” (REMIX THERAPEUTICS INC., priority 2020, published 2023).

Experiments:
Format in all cases: cell-based
[1] = test system: HTT mRNA alternative junction (AJ); experiment: Splicing RT-qPCR assay, increase of HTT alternative junction (AJ) mRNA; conditions: A673 or K562 cells, 24 hours compound treatment, concentration having 50% response in AJ increase
Description: (§1) Compounds described herein were used to modulate RNA transcript abundance in cells. The expression of a target mRNA was measured by detecting the formation of an exon-exon junction in the canonical transcript (CJ). A compound mediated exon-inclusion event was detected by observing an increase in formation of a new junction with an alternative exon (AJ). Real-time qPCR assays were used to detect these splicing switches and interrogate the potency of various compounds towards different target genes. A high-throughput real time quantitative PCR (RT-qPCR) assay was developed to measure these two isoforms of the mRNA (CJ and AJ) for an exemplary gene, HTT, together with a control housekeeping gene, GAPDH or GUSB or PPIA, used for normalization. Briefly, the A673 or K562 cell line was treated with various compounds described herein (e.g., compounds of Formula (I)). After treatment, the levels of the HTT mRNA targets were determined from each sample of cell lysate by cDNA synthesis followed by qPCR.
(§2) The A673 cell line was cultured in DMEM with 10% FBS. Cells were diluted with full growth media and plated in a 96-well plate (15,000 cells in 100 ul media per well). The plate was incubated at 37° C. with 5% CO2 for 24 hours to allow cells to adhere. An 11-point 3-fold serial dilution of the compounds was made in DMSO then diluted in media in an intermediate plate. Compounds were transferred from the intermediate plate to the cell plate with the top dose at a final concentration of 10 uM in the well. Final DMSO concentration was kept at or below 0.25%. The cell plate was returned to the incubator at 37° C. with 5% CO2 for an additional 24 hours.
(§3) The K562 cell line was cultured in IMDM with 10% FBS. For K562, cells were diluted with full growth media and plated in either a 96-well plate (50,000 cells in 50 uL media per well) or a 384-well plate (8,000-40,000 cells in 45 uL media per well). An 11-point 3-fold serial dilution of the compounds were made in DMSO then diluted in media in an intermediate plate. Compound was transferred from the intermediate plate to the cell plate with the top dose at a final concentration of 10 uM in the well. Final DMSO concentration was kept at or below 0.25%. Final volume was 100 uL for 96-well plate and 50 uL for 384-well plate. The cell plate was then placed in an incubator at 37° C. with 5% CO2 for 24 hours.
(§4) The cells were then gently washed with 50 uL-100 uL cold PBS before proceeding to addition of lysis buffer. 30 uL-50 uL of room temperature lysis buffer with DNAse I (and optionally RNAsin) was added to each well. Cells were shaken/mixed thoroughly at room temperature for 5-10 minutes for lysis to take place and then 3 uL-5 uL of room temperature stop solution was added and wells were shaken/mixed again. After 2-5 minutes, the cell lysate plate was transferred to ice for RT-qPCR reaction setup. The lysates could also be frozen at −80° C. for later use.
(§5) In some cases, a direct lysis buffer was used. An appropriate volume of 3× lysis buffer (10 mM Tris, 150 mM NaCl, 1.5%-2.5% Igepal and 0.1-1 U/uL RNAsin, pH 7.4) was directly added to either K562 or A673 cells in media and mixed by pipetting 3 times. The plates were then incubated at room temperature with shaking/rocking for 20-50 minutes to allow for lysis to take place. After this time, the cell lysate plate was transferred to ice to set up for the RT-qPCR reactions. The lysates could also be frozen at −80° C. for later use.
(§6) To set up 10 uL RT-qPCR reactions, cell lysates were transferred to 384-well qPCR plates containing the master mix according to the table below. The plates were sealed, gently vortexed, and spun down before the run. The volumes were adjusted accordingly in some instances where the reaction was carried in 20 uL. The table below summarizes the components of the RT-qPCR reactions:
(§7) The RT-qPCR reaction was performed using a QuantStudio (ThermoFisher) under the following fast cycling conditions. […]

[2] = test system: HTT mRNA canonical junction (CJ); experiment: Splicing RT-qPCR assay, decrease of HTT canonical junction (CJ) mRNA; conditions: A673 or K562 cells, 24 hours compound treatment, concentration having 50% response in CJ decrease
Description: as §1, §2, §3, §4, §5, §6, §7

[3] = test system: HTT CJ mRNA; experiment: Gene panel canonical junction qPCR assay, HTT; conditions: protocol of Example 42, read-out: HTT IC50 (decrease in CJ mRNA levels)
Description: as §1, §2, §3
(§8) The data analysis was performed by first determining the ACt vs the housekeeper gene. This ACt was then normalized against the DMSO control (AACt) and converted to RQ (relative quantification) using the 2^(−ΔΔCt) equation. The RQ were then converted to a percentage response by arbitrarily setting an assay window of 3.5 ΔCt for HTT-CJ and an assay window of 9 ΔCt for HTT-AJ. […] The percentage response was then fitted to the 4 parametric logistic equation to evaluate the concentration dependence of compound treatment. The increase in AJ mRNA is reported as AC50 (compound concentration having 50% response in AJ increase) while the decrease in CJ mRNA levels is reported as IC50 (compound concentration having 50% response in CJ decrease).
(§9) Additional studies were carried out for a larger panel of genes using the protocol provided above. The junction between flanking upstream and downstream exons was used to design canonical junction qPCR assays. At least one of the forward primer, reverse primer or the CY5-labeled 5′ nuclease probe (with 3′ quencher such as ZEN/Iowa Black FQ) was designed to overlap with the exon junction to capture the CJ mRNA transcript. BLAST was used to confirm the specificity of the probeset and parameters such as melting temperature, GC content, amplicon size, and primer dimer formation are considered during their design. Data for the decrease in CJ mRNA levels for three exemplary genes (HTT, SMN2, and Target C) analyzed in this panel are reported as IC50 (compound concentration having 50% response in CJ decrease).

[4] = test system: SMN2 CJ mRNA; experiment: Gene panel canonical junction qPCR assay, SMN2; conditions: protocol of Example 42, read-out: SMN2 IC50 (decrease in CJ mRNA levels)
Description: as §1, §2, §3, §8, §9

[5] = test system: Target C CJ mRNA; experiment: Gene panel canonical junction qPCR assay, Target C; conditions: protocol of Example 42, read-out: Target C IC50 (decrease in CJ mRNA levels)
Description: as §1, §2, §3, §8, §9

Row | SMILES | AC50 [1] [nM] | AC50 [2] [nM] | IC50 [3] [nM] | IC50 [4] [nM] | IC50 [5] [nM]
1 | Cc1cn2cc(NC(=O)c3ccc(N4C[C@H]5CC[C@@H](C4)N5)c4cc(C)oc34)cc(F)c2n1 [Compound 255] | 1000 to 10000 | 1000 to 10000 | 1000 to 10000 | < 100 | > 10000
2 | Cc1cn2cc(NC(=O)c3ccc(N(C)C4CCN(C)CC4)c4cn(C)nc34)cc(F)c2n1 [Compound 245] | 100 to 1000 | 100 to 1000 | 100 to 1000 | < 100 | 100 to 1000
3 | Cc1cn2cc(NC(=O)c3ccc(N4CCC(NC(C)(C)C)CC4)c4cc(C)oc34)cc(F)c2n1 [Compound 197, 4-[4-(tert-butylamino)piperidin-1-yl]-N-[8-fluoro-2-methylimidazo[1,2-a]pyridin-6-yl]-2-methyl-1-benzofuran-7-carboxamide] | > 10000 | > 10000 | > 10000 | 100 to 1000 | > 10000
4 | Cc1nc2c(F)cc(NC(=O)c3ccc(N4CCNCC4)c4cn(C)nc34)cc2s1 [Compound 235] | 1000 to 10000 | 1000 to 10000 | 1000 to 10000 | < 100 | > 10000
5 | Cc1cn2cc(NC(=O)c3ccc(N4C[C@H]5CC[C@@H](C4)N5)c4cn(C)nc34)cc(Cl)c2n1 [Compound 279, N-{8-chloro-2-methylimidazo[1,2-a]pyridin-6-yl}-4-[(1R,5S)-3,8-diazabicyclo[3.2.1]octan-3-yl]-2-methylindazole-7-carboxamide] | 1000 to 10000 | 1000 to 10000 | 1000 to 10000 | < 100 | > 10000
6 | CCN1CCC(c2ccc(C(=O)Nc3cc(F)c4nc(C)cn4c3)c3oc(C)cc23)CC1 [Compound 257, 4-(1-ethylpiperidin-4-yl)-N-[8-fluoro-2-methylimidazo[1,2-a]pyridin-6-yl]-2-methyl-1-benzofuran-7-carboxamide] | 1000 to 10000 | 1000 to 10000 | 1000 to 10000 | < 100 | > 10000
7 | Cc1cn2cc(NC(=O)c3ccc(C4C[C@@H](C)N[C@@H](C)C4)c4cn(C)nc34)cc(F)c2n1 (stereo partly drawn) [Compound 211, 4-[(cis-)-2,6-dimethylpiperidin-4-yl]-N-[8-fluoro-2-methylimidazo[1,2-a]pyridin-6-yl]-2-methylindazole-7-carboxamide trifluoroacetic acid] | 1000 to 10000 | 1000 to 10000 | 1000 to 10000 | < 100 | > 10000
8 | Cc1cn2cc(NC(=O)c3ccc(N4CCNC5(CC5)C4)c4cc(C)oc34)cc(F)c2n1 [Compound 194] | 1000 to 10000 | 1000 to 10000 | 1000 to 10000 | < 100 | > 10000
9 | Cc1cn2cc(NC(=O)c3ccc(N4CCNC5(CC5)C4)c4cn(C)nc34)cc(F)c2n1 [Compound 241] | 1000 to 10000 | 1000 to 10000 | 1000 to 10000 | < 100 | 1000 to 10000
10 | Cc1cn2cc(NC(=O)c3ccc(N4CC5(CN(C)C5)C4)c4cc(C)oc34)cc(F)c2n1 [Compound 206] | 1000 to 10000 | 1000 to 10000 | 1000 to 10000 | < 100 | > 10000
11 | Cc1cn2nc(NC(=O)c3ccc(N4CCNCC4)c4cc(C)oc34)nc2c(C)n1 [Compound 264] | > 10000 | > 10000 | > 10000 | > 10000 | > 10000
12 | Cc1cn2cc(NC(=O)c3ccc(N4CCNC(C)(C)C4)c4cc(C)oc34)cc(F)c2n1 [Compound 193] | 1000 to 10000 | 1000 to 10000 | 1000 to 10000 | < 100 | > 10000
13 | CCNC1CCN(c2ccc(C(=O)Nc3cc(F)c4nc(C)cn4c3)c3oc(C)cc23)CC1 [Compound 196, 4-[4-(ethylamino)piperidin-1-yl]-N-[8-fluoro-2-methylimidazo[1,2-a]pyridin-6-yl]-2-methyl-1-benzofuran-7-carboxamide] | 1000 to 10000 | 1000 to 10000 | 1000 to 10000 | < 100 | 1000 to 10000
14 | Cc1cn2nc(NC(=O)c3ccc(N4CCNCC4)c4nn(C)cc34)nc2c(C)n1 [Compound 253] | > 10000 | > 10000 | > 10000 | 1000 to 10000 | > 10000
15 | Cc1cn2cc(NC(=O)c3ccc(N4CCNC(C)C4)c4cc(C)oc34)cc(F)c2n1 (centres unmarked) [Compound 190, N-{8-fluoro-2-methylimidazo[1,2-a]pyridin-6-yl}-2-methyl-4-(3-methylpiperazin-1-yl)-1-benzofuran-7-carboxamide] | 1000 to 10000 | 1000 to 10000 | 1000 to 10000 | 100 to 1000 | 1000 to 10000
16 | Cc1cn2cc(NC(=O)c3ccc(N4CCN(C)CC4)c4cc(C)oc34)cc(F)c2n1 [Compound 189, N-[8-fluoro-2-methylimidazo [1,2-a]pyridin-6-yl]-2-methyl-4-(4-methylpiperazin-1-yl)-1-benzofuran-7-carboxamide] | 1000 to 10000 | 1000 to 10000 | 1000 to 10000 | < 100 | 1000 to 10000
17 | Cc1cn2cc(NC(=O)c3ccc(N4CCC(NC(C)(C)C)C4)c4cc(C)oc34)cc(F)c2n1 (centres unmarked) [Compound 203, 4-[3-(tert-butylamino)pyrrolidin-1-yl]-N-[8-fluoro-2-methylimidazo[1,2-a]pyridin-6-yl]-2-methyl-1-benzofuran-7-carboxamide] | 1000 to 10000 | 1000 to 10000 | 1000 to 10000 | 100 to 1000 | 1000 to 10000
18 | CCC1CN(c2ccc(C(=O)Nc3cc(F)c4nc(C)cn4c3)c3nn(C)cc23)CCN1 (centres unmarked) [Compound 239] | 100 to 1000 | 100 to 1000 | 100 to 1000 | < 100 | 1000 to 10000
19 | Cc1nc2c(F)cc(NC(=O)c3ccc(N4CCNCC4)c4cn(C)nc34)cc2o1 [Compound 234] | 100 to 1000 | 1000 to 10000 | 1000 to 10000 | < 100 | 1000 to 10000
